For 22 compounds, IC50 results are on record in patent US20260184707A1, “PHARMACEUTICAL COMPOUNDS FOR THE TREATMENT OF COMPLEMENT MEDIATED DISORDERS” (ALEXION PHARMACEUTICALS, INC., priority 2022, published 2026).

This assay addresses T1, Human complement C1s enzyme (Homo sapiens, UniProt P09871).
T1 construct: purified from human serum, Complement Technology, Inc; purchased Complement Technology, Inc; host or cells: human serum (plasma-derived native protein)
T1 sequence (P09871 438-688 limits assumed): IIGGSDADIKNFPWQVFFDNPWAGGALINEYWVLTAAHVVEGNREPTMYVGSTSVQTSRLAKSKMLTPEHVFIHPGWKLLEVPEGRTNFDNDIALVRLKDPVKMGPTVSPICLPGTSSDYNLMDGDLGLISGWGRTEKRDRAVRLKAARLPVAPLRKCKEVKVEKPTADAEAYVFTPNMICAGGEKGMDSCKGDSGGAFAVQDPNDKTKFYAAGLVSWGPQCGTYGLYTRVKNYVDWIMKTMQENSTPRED
T1 sequence (P09871 16-437 partner limits assumed): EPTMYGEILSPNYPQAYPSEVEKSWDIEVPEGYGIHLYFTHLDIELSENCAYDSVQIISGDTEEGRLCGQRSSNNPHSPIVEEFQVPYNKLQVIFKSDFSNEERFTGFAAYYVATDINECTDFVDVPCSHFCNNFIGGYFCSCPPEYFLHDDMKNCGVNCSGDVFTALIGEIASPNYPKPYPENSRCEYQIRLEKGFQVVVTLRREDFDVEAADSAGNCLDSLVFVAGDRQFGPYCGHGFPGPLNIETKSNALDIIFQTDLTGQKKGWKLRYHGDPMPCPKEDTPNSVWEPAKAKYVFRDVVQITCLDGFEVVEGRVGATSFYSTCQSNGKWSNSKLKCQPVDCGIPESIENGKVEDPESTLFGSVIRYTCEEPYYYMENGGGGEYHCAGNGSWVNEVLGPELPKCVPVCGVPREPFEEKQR
Description: Human C1s enzyme assay. Type of assay: biochemical. As to conditions: human complement C1s enzyme 1.16 nM, substrate Z-L-Lys-SBzl, A405; read-out: IC50 (Stars). The method, boiled down:
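Serum-purified human C1s (1.16 nM final) preincubated 5 min at room temperature with compound in 50 mM Tris, 1 M NaCl, pH 7.5. Z-L-Lys-SBzl and DTNB added at 100 μM each; A405 recorded every 30 s. IC50 from nonlinear regression of reaction rates versus compound concentration.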

The term IC50 denotes the concentration at which inhibition is half-maximal.

Consider `C[C@@H](Nc1cnc(N2CC(F)C2)n(CC(=O)NCc2cc3cnccc3[nH]2)c1=O)c1ccc2oc3ccccc3c2c1` [Compound 368, (R)-N-((1H-pyrrolo[3,2-c]pyridin-2-yl)methyl)-2-(5-((1-(dibenzo[b,d]furan-2-yl)ethyl)-amino)-2-(3-fluoroazetidin-1-yl)-6-oxopyrimidin-1(6H)-yl)-acetamide], for which the IC50 was > 1000 nM. The result for `O=C(Cn1c(-c2ccccc2)ncc(NC(=O)c2coc(-c3cccnc3)n2)c1=O)NCc1cc2cnccc2[nH]1` [Compound 231, N-(1-(2-(((1H-pyrrolo[3,2-c]pyridine-2-yl)methyl)amino)-2-oxoethyl)-6-oxo-2-phenyl-1,6-dihydropyrimidin-5-yl)-2-(pyridine-3-yl)oxazole-4-carboxamide] reads < 100 nM; that for `C[C@@H](Nc1ncc(-c2cscn2)n(CC(=O)NCc2cc3cnccc3[nH]2)c1=O)c1ccc2oc3ccccc3c2c1` [Compound 429, (R)-N-((1H-pyrrolo[3,2-c]pyridin-2-yl)methyl)-2-(3-((1-(dibenzo[b,d]furan-2-yl)ethyl)-amino)-2-oxo-6-(thiazol-4-yl)-pyrazin-1(2H)-yl)acetamide], < 100 nM. The result for `O=C(Cn1c(-c2ccc(F)c(F)c2)ncc(NC(=O)c2ccc(-c3ccccc3)cc2)c1=O)NCc1cc2cnccc2[nH]1` [Compound 226, N-(1-(2-(((1H-pyrrolo[3,2-c]pyridin-2-yl)methyl)amino)-2-oxoethyl)-2-(3,4-difluorophen-yl)-6-oxo-1,6-dihydropyrimi-din-5-yl)-[1,1′-biphenyl]-4-carboxamide] reads < 100 nM; that for `Cc1ccc(F)c(-c2ncc(N[C@H](C)c3ccc4oc5ccccc5c4c3)c(=O)n2CC(=O)NCc2cc3cnccc3[nH]2)c1` [Compound 438, (R)-N-((1H-pyrrolo[3,2-c]pyridin-2-yl)methyl)-2-(5-((1-(dibenzo[b,d]furan-2-yl)ethyl)-amino)-2-(2-fluoro-5-methyl-phenyl)-6-oxopyrimidin-1(6H)-yl)acetamide], < 100 nM; that for `C[C@@H](Nc1cnc(OC2CC2)n(CC(=O)NCc2cc3cnccc3[nH]2)c1=O)c1ccc2oc3ccccc3c2c1` [Compound 343, (R)—N-((1H-pyrrolo[3,2-c]pyridine-2-yl)methyl)-2-(2-cyclopropoxy-5-((1-(dibenzo[b,d]furan-2-yl)ethyl)amino)-6-oxopyrimidin-1(6H)-yl)acetamide], 100 to 1000 nM.

Regarding `COCC(=O)N1CCN(c2ncc(N[C@H](C)c3ccc4oc5ccccc5c4c3)c(=O)n2CC(=O)NCc2cc3cnccc3[nH]2)CC1` [Compound 482, (R)-N-((1H-pyrrolo[3,2-c]pyridin-2-yl)methyl)-2-(5-((1-(dibenzo[b,d]furan-2-yl)ethyl)-amino)-2-(4-(2-methoxyacet-yl)piperazin-1-yl)-6-oxopyr-imidin-1(6H)-yl)acetamide], the IC50 is < 100 nM. The result for `COc1ccccc1-c1ccc(CNc2cnc(-c3ccccc3)n(CC(=O)NCc3cc4cnccc4[nH]3)c2=O)cc1` [Compound 257, N-((1H-pyrrolo[3,2-c]pyridin-2-yl)methyl)-2-(5-(((2′-meth-oxy-[1,1′-biphenyl]-4-yl)meth-yl)amino)-6-oxo-2-phenylpyr-imidin-1(6H)-yl)acetamide] reads < 100 nM; that for `C[C@@H](Nc1cnc(-c2cscn2)n(CC(=O)NCc2cc3cnccc3[nH]2)c1=O)c1ccc2oc3ccccc3c2c1` [Compound 339, (R)-N-((1H-pyrrolo[3,2-c]pyridin-2-yl)methyl)-2-(5-((1-(dibenzo[b,d]furan-2-yl)ethyl)-amino)-6-oxo-2-(thiazol-4-yl)-pyrimidin-1(6H)-yl)acetamide], < 100 nM; that for `CC1CCCN(c2ncc(N[C@H](C)c3ccc4oc5ccccc5c4c3)c(=O)n2CC(=O)NCc2cc3cnccc3[nH]2)C1` (stereo partly drawn) [Compound 381, N-((1H-pyrrolo[3,2-c]pyridin-2-yl)methyl)-2-(5-(((R)-1-(dibenzo[b,d]furan-2-yl)ethyl)-amino)-2-(3-methylpiperidin-1-yl)-6-oxopyrimidin-1(6H)-yl)acetamide], > 1000 nM. Regarding `C[C@@H](Nc1cnc(-c2cccs2)n(CC(=O)NCc2cc3cnccc3[nH]2)c1=O)c1ccc2oc3ccccc3c2c1` [Compound 327, (R)-N-((1H-pyrrolo[3,2-c]pyridin-2-yl)methyl)-2-(5-((1-(dibenzo[b,d]furan-2-yl)ethyl)-amino)-6-oxo-2-(thiophen-2-yl)pyrimidin-1(6H)-yl)acet-amide], the 50% inhibitory concentration (IC50) is < 100 nM. The result for `O=C(Cn1c(-c2ccccc2)ncc(NC(=O)c2ccc(-c3nccs3)cc2)c1=O)NCc1cc2cnccc2[nH]1` [Compound 172, N-(1-(2-(((1H-pyrrolo[3,2-c]pyridine-2-yl)methyl)amino)-2-oxoethyl)-6-oxo-2-phenyl-1,6-dihydropyrimidin-5-yl)-4-(thiazol-2-yl)benzamide] reads < 100 nM. Turning to `O=C(Cn1c(-c2ccccc2)ncc(NC(=O)c2ccc(Oc3cccnc3)cc2)c1=O)NCc1cc2cnccc2[nH]1` [Compound 53, N-(1-(2-(((1H-pyrrolo[3,2-c]pyridin-2-yl)methyl)amino)-2-oxoethyl)-6-oxo-2-phenyl-1,6-dihydropyrimidin-5-yl)-4-(pyridin-3-yloxy)benzamide], the half-maximal inhibitory concentration (IC50) is < 100 nM.

Take `O=C(Cn1c(-c2ccccc2)ncc(NC(=O)c2ccc(-c3ccccc3F)cc2)c1=O)NCc1cc2cnccc2[nH]1` [Compound 214, N-(1-(2-(((1H-pyrrolo[3,2-c]pyridin-2-yl)methyl)amino)-2-oxoethyl)-6-oxo-2-phenyl-1,6-dihydropyrimidin-5-yl)-2′-fluoro-[1,1′-biphenyl]-4-carboxamide]: the IC50 is < 100 nM. The value for `O=C(Cn1c(-c2ccccc2)ncc(NCCCc2ccc(C(=O)c3ccccc3)cc2)c1=O)NCc1cc2cnccc2[nH]1` [Compound 41, N-((1H-pyrrolo[3,2-c]pyridin-2-yl)methyl)-2-(5-((3-(4-benzo-ylphenyl)propyl)amino)-6-oxo-2-phenylpyrimidin-1(6H)-yl)-acetamide] was < 100 nM; that for `O=C(Cn1c(-c2ccccc2)ncc(NC(=O)c2ccc(Oc3ccccc3Cl)cc2)c1=O)NCc1cc2cnccc2[nH]1` [Compound 72, N-(1-(2-(((1H-pyrrolo[3,2-c]pyridin-2-yl)methyl)amino)-2-oxoethyl)-6-oxo-2-phenyl-1,6-dihydropyrimidin-5-yl)-4-(2-chlorophenoxy)benzamide] was < 100 nM. On to `O=C(Cn1c(-c2ccccc2)cnc(NC(=O)c2ccc3oc4ccccc4c3c2)c1=O)NCc1cc2cnccc2[nH]1` [Compound 101, N-(4-(2-(((1H-pyrrolo[3,2-c]pyridin-2-yl)methyl)amino)-2-oxoethyl)-3-oxo-5-phenyl-3,4-dihydropyrazin-2-yl)dibenzo [b,d]furan-2-carboxamide], for which the IC50 is < 100 nM. The value for `C[C@H](Nc1cnc(C2=CCCCC2)n(CC(=O)NCc2cc3cnccc3[nH]2)c1=O)c1ccc2oc3ccccc3c2c1` [Compound 272, (S)-N-((1H-pyrrolo[3,2-c]pyr-idin-2-yl)methyl)-2-(2-(cyclo-hex-1-en-1-yl)-5-((1-(dibenzo [b,d]furan-2-yl)ethyl)amino)-6-oxopyrimidin-1(6H)-yl)acet-amide] was < 100 nM. The value for `O=C(Cn1c(-c2ccccc2F)ncc(NC2(c3ccc4oc5ccccc5c4c3)CC2)c1=O)NCc1cc2cnccc2[nH]1` [Compound 403, N-((1H-pyrrolo[3,2-c]pyridine-2-yl)methyl)-2-(5-((1-(dibenzo[b,d]furan-2-yl)cyclopropyl)amino)-2-(2-fluorophenyl)-6-oxopyrimidin-1(6H)-yl)acetamide] was < 100 nM. With `C[C@@H](Nc1cnc(-c2ccco2)n(CC(=O)NCc2cc3cnccc3[nH]2)c1=O)c1ccc2oc3ccccc3c2c1` [Compound 326, (R)-N-((1H-pyrrolo[3,2-c]pyridin-2-yl)methyl)-2-(5-((1-(dibenzo[b,d]furan-2-yl)ethyl)-amino)-2-(furan-2-yl)-6-oxo-pyrimidin-1(6H)-yl)acetamide], the IC50 is < 100 nM.

As for `C[C@@H](Nc1cnc(-c2ccc(S(F)(F)(F)(F)F)cc2)n(CC(=O)NCc2cc3cnccc3[nH]2)c1=O)c1ccc2oc3ccccc3c2c1` [Compound 345, (R)-N-((1H-pyrrolo[3,2-c]pyridin-2-yl)methyl)-2-(5-((1-(dibenzo[b,d]furan-2-yl)ethyl)-amino)-6-oxo-2-(4-(penta-fluoro-lambda6-sulfaneyl)-phenyl)pyrimidin-1(6H)-yl)-acetamide], the IC50 was < 100 nM. Consider `O=C(Cn1c(-c2ccccc2)ncc(NCCCc2ccc(Cl)cc2)c1=O)NCc1cc2cnccc2[nH]1` [Compound 27, N-((1H-pyrrolo[3,2-c]pyridin-2-yl)methyl)-2-(5-((3-(4-chlorophenyl)propyl)amino)-6-oxo-2-phenylpyrimidin-1(6H)-yl)acetamide], for which the 50% inhibitory concentration (IC50) was < 100 nM.
